Among the data in patent US20240025919A1, “AZA-TETRACYCLIC OXAZEPINE COMPOUNDS AND USES THEREOF” (Genentech, Inc., priority 2022, published 2024) are IC50 values, retold here.

The target in one assay is KRAS WT (Homo sapiens (Human), UniProt P01116). Nature of the assay: KRAS WT Biochemical Assay, BODIPY-GDP Exchange TR-FRET (Example 501; 3 nM KRAS WT, 3 nM SOS1, 60-minute incubation). As to conditions: read-out: KRas HTRF IC50. The method in brief:
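SOS1-mediated exchange assay: 3 nM biotin-KRAS WT with terbium-streptavidin, started with 3 nM SOS1 and 300 nM BODIPY-GDP, HEPES pH 7.5 with MgCl2. TR-FRET (520/490 nm) read after 60 min; normalized to DMSO and full-inhibition control, IC50 from 4-parameter Hill fit.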
In general terms: Time-resolved FRET reads energy transfer from a long-lived donor to a nearby acceptor.

Another assay deals with KRAS G12D (Homo sapiens (Human), UniProt P01116, G12D). As to the kind of experiment: KRAS G12D LoEnz Biochemical Assay, BODIPY-GDP Exchange TR-FRET (SOS1-mediated nucleotide exchange). As to conditions: read-out: KRas (G12D) GDP HTRF IC50.
Sequence of KRAS G12D (P01116-2 other isoform, or with tags, fused parts or gaps G12D): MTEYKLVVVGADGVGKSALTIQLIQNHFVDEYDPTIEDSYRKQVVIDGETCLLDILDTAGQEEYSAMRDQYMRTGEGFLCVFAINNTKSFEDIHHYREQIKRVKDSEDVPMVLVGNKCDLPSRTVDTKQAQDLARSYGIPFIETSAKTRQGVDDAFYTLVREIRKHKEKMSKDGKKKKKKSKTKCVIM

Sequence of KRAS WT (P01116-2 other isoform, or with tags, fused parts or gaps): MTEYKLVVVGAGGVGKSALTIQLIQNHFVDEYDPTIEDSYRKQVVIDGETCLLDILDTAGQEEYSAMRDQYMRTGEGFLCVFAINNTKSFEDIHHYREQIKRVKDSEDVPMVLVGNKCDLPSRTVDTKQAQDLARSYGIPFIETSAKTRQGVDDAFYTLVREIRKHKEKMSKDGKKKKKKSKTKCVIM

As to `Cc1c(F)c(N)nc(-c2nc3c4c(nc(OC[C@@]56CCCN5C[C@H](F)C6)nc4c2F)N2C[C@H]4CC[C@H](N4)[C@H]2[C@H](C)O3)c1C(F)(F)F` [Compound 191, 3-Fluoro-6-((5S,5aS,6S,9R)-1-fluoro-12-(((2R,7aS)-2-fluorotetrahydro-1H-pyrrolizin-7a(5H)-yl)methoxy)-5-methyl-5a,6,7,8,9,10-hexahydro-5H-4-oxa-3,10a,11,13,14-pentaaza-6,9-methanonaphtho[1,8-ab]heptalen-2-yl)-4-methyl-5-(trifluoromethyl)pyridin-2-amine], the concentration for half-maximal inhibition (IC50) at KRAS WT was 91.1 nM; on KRAS G12D, 0.46 nM.
For the compound `C[C@@H]1Oc2nc(N(C)c3ccc(F)c(N)c3)c(F)c3nc(OC[C@@]45CCCN4C[C@H](F)C5)nc(c23)N2C[C@H]3CC[C@H](N3)[C@@H]12` [Compound 193, 4-fluoro-Ni-((5S,5aS,6S,9R)-1-fluoro-12-(((2R,7aS)-2-fluorotetrahydro-1H-pyrrolizin-7a(5H)-yl)methoxy)-5-methyl-5a,6,7,8,9,10-hexahydro-5H-4-oxa-3,10a,11,13,14-pentaaza-6,9-methanonaphtho[1,8-ab]heptalen-2-yl)-Ni-methylbenzene-1,3-diamine], the concentration for half-maximal inhibition (IC50) was found to be 128000 nM at KRAS WT and 32800 nM on KRAS G12D.
Regarding `Cc1nc(N)c(F)c(-c2nc3c4c(nc(OC[C@@]56CCCN5C[C@H](F)C6)nc4c2F)N2C[C@H]4CC[C@H](N4)[C@H]2[C@H](C)O3)c1C(F)(F)F` [Compound 194, 3-Fluoro-4-((5S,5aS,6S,9R)-1-fluoro-12-(((2R,7aS)-2-fluorotetrahydro-1H-pyrrolizin-7a(5H)-yl)methoxy)-5-methyl-5a,6,7,8,9,10-hexahydro-5H-4-oxa-3,10a,11,13,14-pentaaza-6,9-methanonaphtho[1,8-ab]heptalen-2-yl)-6-methyl-5-(trifluoromethyl)pyridin-2-amine], the IC50 came out at 28.9 nM on KRAS WT and 0.42 nM at KRAS G12D.
Regarding `Cc1c(F)c(N)c(F)c(-c2nc3c4c(nc(OC[C@@]56CCCN5C[C@H](F)C6)nc4c2F)N2C[C@H]4CC[C@H](N4)[C@H]2[C@H](C)O3)c1Cl` [Compound 195, 4-Chloro-2,6-difluoro-3-((5S,5aS,6S,9R)-1-fluoro-12-(((2R,7aS)-2-fluorotetrahydro-1H-pyrrolizin-7a(5H)-yl)methoxy)-5-methyl-5a,6,7,8,9,10-hexahydro-5H-4-oxa-3,10a,11,13,14-pentaaza-6,9-methanonaphtho[1,8-ab]heptalen-2-yl)-5-methylaniline], the IC50 at KRAS WT came to 108 nM; on KRAS G12D, 0.44 nM.
Taken in the same sequence, the figures for `C[C@@H]1Oc2nc(-c3c(F)ccc4cc[nH]c(=O)c34)c(F)c3nc(OC[C@@]45CCCN4C[C@H](F)C5)nc(c23)N2C[C@H]3CC[C@H](N3)[C@@H]12` [Compound 196, 7-Fluoro-8-((5S,5aS,6S,9R)-1-fluoro-12-(((2R,7aS)-2-fluorotetrahydro-1H-pyrrolizin-7a(5H)-yl)methoxy)-5-methyl-5a,6,7,8,9,10-hexahydro-5H-4-oxa-3,10a,11,13,14-pentaaza-6,9-methanonaphtho[1,8-ab]heptalen-2-yl)isoquinolin-1(2H)-one] were 20100 nM and 248 nM.
With `Cc1nc(N)c(Cl)c(-c2nc3c4c(nc(OC[C@@]56CCCN5C[C@H](F)C6)nc4c2F)N2C[C@H]4CC[C@H](N4)[C@H]2[C@H](C)O3)c1C(F)(F)F` [Compound 197, 3-Chloro-4-((5S,5aS,6S,9R)-1-fluoro-12-(((2R,7aS)-2-fluorotetrahydro-1H-pyrrolizin-7a(5H)-yl)methoxy)-5-methyl-5a,6,7,8,9,10-hexahydro-5H-4-oxa-3,10a,11,13,14-pentaaza-6,9-methanonaphtho[1,8-ab]heptalen-2-yl)-6-methyl-5-(trifluoromethyl)pyridin-2-amine], the IC50 at KRAS WT came to 59.8 nM; at KRAS G12D, 0.46 nM.
As for `Cc1nc(N)c(C)c(-c2nc3c4c(nc(OC[C@@]56CCCN5C[C@H](F)C6)nc4c2F)N2C[C@H]4CC[C@H](N4)[C@H]2[C@H](C)O3)c1C(F)(F)F` [Compound 198, 4-((5S,5aS,6S,9R)-1-Fluoro-12-(((2R,7aS)-2-fluorotetrahydro-1H-pyrrolizin-7a(5H)-yl)methoxy)-5-methyl-5a,6,7,8,9,10-hexahydro-5H-4-oxa-3,10a,11,13,14-pentaaza-6,9-methanonaphtho[1,8-ab]heptalen-2-yl)-3,6-dimethyl-5-(trifluoromethyl)pyridin-2-amine], the results for the IC50 on KRAS WT and at KRAS G12D were 85.8 nM and 0.62 nM, respectively.
On to `C[C@@H]1Oc2nc(-c3cc(N)cc4c3CC4)c(F)c3nc(OC[C@@]45CCCN4C[C@H](F)C5)nc(c23)N2C[C@H]3CC[C@H](N3)[C@@H]12` [Compound 201, 5-((5S,5aS,6S,9R)-1-Fluoro-12-(((2R,7aS)-2-fluorotetrahydro-1H-pyrrolizin-7a(5H)-yl)methoxy)-5-methyl-5a,6,7,8,9,10-hexahydro-5H-4-oxa-3,10a,11,13,14-pentaaza-6,9-methanonaphtho[1,8-ab]heptalen-2-yl)bicyclo[4.2.0]octa-1(6),2,4-trien-3-amine], for which the IC50 on KRAS WT is 1620 nM; at KRAS G12D it was 9.19 nM.
Consider `Cc1c(F)c(O)cc(-c2nc3c4c(nc(OC[C@@]56CCCN5C[C@H](F)C6)nc4c2F)N2C[C@H]4CC[C@H](N4)[C@H]2[C@H](C)O3)c1C(F)(F)F` [Compound 202, 2-Fluoro-5-((5S,5aS,6S,9R)-1-fluoro-12-(((2R,7aS)-2-fluorotetrahydro-1H-pyrrolizin-7a(5H)-yl)methoxy)-5-methyl-5a,6,7,8,9,10-hexahydro-5H-4-oxa-3,10a,11,13,14-pentaaza-6,9-methanonaphtho[1,8-ab]heptalen-2-yl)-3-methyl-4-(trifluoromethyl)phenol], for which the half-inhibitory concentration (IC50) is 214 nM at KRAS WT and 1.98 nM on KRAS G12D.
For `Cc1c(F)ccc(-c2nc3c4c(nc(OC[C@@]56CCCN5C[C@H](F)C6)nc4c2F)N2C[C@H]4CC[C@H](N4)[C@H]2[C@H](C)O3)c1C(F)(F)F` [Compound 203, (5S,5aS,6S,9R)-1-fluoro-2-(4-fluoro-3-methyl-2-(trifluoromethyl)phenyl)-12-(((2R,7aS)-2-fluorotetrahydro-1H-pyrrolizin-7a(5H)-yl)methoxy)-5-methyl-5a,6,7,8,9,10-hexahydro-5H-4-oxa-3,10a,11,13,14-pentaaza-6,9-methanonaphtho[1,8-ab]heptalene], in that order: 1590 nM and 26.8 nM.
Take `Cc1c(F)c(N)c(F)c(-c2nc3c4c(nc(OC[C@@]56CCCN5C[C@H](F)C6)nc4c2F)N2C[C@H]4CC[C@H](N4)[C@H]2[C@H](C)O3)c1I` [Compound 204, 2,6-Difluoro-3-((5S,5aS,6S,9R)-1-fluoro-12-(((2R,7aS)-2-fluorotetrahydro-1H-pyrrolizin-7a(5H)-yl)methoxy)-5-methyl-5a,6,7,8,9,10-hexahydro-5H-4-oxa-3,10a,11,13,14-pentaaza-6,9-methanonaphtho[1,8-ab]heptalen-2-yl)-4-iodo-5-methylaniline]: the IC50 is 69.1 nM on KRAS WT and 0.385 nM at KRAS G12D.
For the compound `Cc1nc(N)cc(-c2nc3c4c(nc(OCC5(CN6CC7COCC7C6)CC5)nc4c2F)N2C[C@H]4CC[C@H](N4)[C@H]2[C@H](C)O3)c1C(F)(F)F` (stereo partly drawn) [Compound 205, 4-((5S,5aS,6S,9R)-1-Fluoro-5-methyl-12-((1-((tetrahydro-1H-furo[3,4-c]pyrrol-5(3H)-yl)methyl)cyclopropyl)methoxy)-5a,6,7,8,9,10-hexahydro-5H-4-oxa-3,10a,11,13,14-pentaaza-6,9-methanonaphtho[1,8-ab]heptalen-2-yl)-6-methyl-5-(trifluoromethyl)pyridin-2-amine], the IC50 at KRAS WT amounted to 8.61 nM; on KRAS G12D it was 3.39 nM.
In the case of `Cc1nc(N)cc(-c2nc3c4c(nc(OCC5(CN6C7CCC6COC7)CC5)nc4c2F)N2C[C@H]4CC[C@H](N4)[C@H]2[C@H](C)O3)c1C(F)(F)F` [Compound 206, 4-((5S,5aS,6S,9R)-12-((1-((3-Oxa-8-azabicyclo[3.2.1]octan-8-yl)methyl)cyclopropyl)methoxy)-1-fluoro-5-methyl-5a,6,7,8,9,10-hexahydro-5H-4-oxa-3,10a,11,13,14-pentaaza-6,9-methanonaphtho[1,8-ab]heptalene-2-yl)-6-methyl-5-(trifluoromethyl)pyridin-2-amine], the figures for the IC50 on KRAS WT and on KRAS G12D were 24.2 nM and 0.17 nM, respectively.
Regarding `Cc1nc(N)cc(-c2nc3c4c(nc(OCC5(CN6CC7CCC(C6)O7)CC5)nc4c2F)N2C[C@H]4CC[C@H](N4)[C@H]2[C@H](C)O3)c1C(F)(F)F` [Compound 207, 4-((5S,5aS,6S,9R)-12-((1-((8-oxa-3-azabicyclo[3.2.1]octan-3-yl)methyl)cyclopropyl)methoxy)-1-fluoro-5-methyl-5a,6,7,8,9,10-hexahydro-5H-4-oxa-3,10a,11,13,14-pentaaza-6,9-methanonaphtho[1,8-ab]heptalene-2-yl)-6-methyl-5-(trifluoromethyl)pyridin-2-amine], the IC50 at KRAS WT was 43.1 nM; on KRAS G12D it was 0.36 nM.
As for `Cc1nc(N)cc(-c2nc3c4c(nc(OCC5(CN6C[C@@H]7C[C@H]6CO7)CC5)nc4c2F)N2C[C@H]4CC[C@H](N4)[C@H]2[C@H](C)O3)c1C(F)(F)F` [Compound 208, 4-((5S,5aS,6S,9R)-12-((1-(((1S,4S)-2-Oxa-5-azabicyclo[2.2.1]heptan-5-yl)methyl)cyclopropyl)methoxy)-1-fluoro-5-methyl-5a,6,7,8,9,10-hexahydro-5H-4-oxa-3,10a,11,13,14-pentaaza-6,9-methanonaphtho[1,8-ab]heptalene-2-yl)-6-methyl-5-(trifluoromethyl)pyridin-2-amine], the figures for the IC50 on KRAS WT and on KRAS G12D were 24.7 nM and 0.31 nM, respectively.

What is called IC50 is the concentration that inhibits the measured activity by half.
